Literature values, collected in US20170014318A9, “Hair-growth-promoting solution containing chlorine dioxide, preparation methods and using methods thereof” (priority 2011, published 2017).

How the values were obtained:
[1] = 276.5 mg/L aqueous solution
[2] = 276.5 mg/L aqueous solution; remark: listed apart in the source
skin and eye mucous = details: solution containing 9.7 to 11.4 mg/L of chlorine dioxide

Row | Compound | accumulated toxicity [1] | toxicity of aqueous solution [2] | 48 hour skin and eye mucous irritating score (skin and eye mucous) | oral LD50 (mice) [mg/kg]
1 | [O][Cl+][O-] [chlorine dioxide] | no significant accumulated toxicity | actually non-toxic | 0 | –
2 | stable chlorine dioxide | – | – | – | > 10000
